The source of these data is patent US9566330B2, “Immunogenic composition for immune system modulation and use thereof, method for treating and preventing diseases, method for inducing cell regeneration and method for restoring immune response” (priority 2011, dated 2017).

For data set [1], the system named is multiresistant Acinetobacter baunnamii. Nature of the data set: Cultures of the injury area, peripheral blood and central catheter: antibiotic sensitivity. It is filed as cell-based, Acinetobacter baumannii. How it is done:
Initial assessment of the patient's injuries in the operating room on 29 Jan. […] As described, the DECA immunotherapy was applied to these areas. It is interesting to note that on this occasion cultures of internal secretions and tissue fragments were performed.

Data set [2] deals with Septicemia (Pseudomonas aeruginosa, Acinetobacter baunnamii, Proteus mirabiles). Nature of the data set: Clinical case, patient J-P: septicemia with infected complex wounds. The data set is classed as in vivo, human. To be noted: 6 Feb. 2011; Polymyxin B 20,000 IU/kg twice daily and other antimicrobials. From the text:
The patient was admitted to the ICU of Hospital Alemao Oswaldo Cruz for debridement and application of treatment with DECA which took the following form: • Application of 1.8 cc of the DECA composition divided into 2 applications of 0.9 cc per composition along the 10 main lymphatic territories. • 3-4 cm distance margin between applications to facilitate the reading of the evolution of the treatment at an interval of 4±1 days. These applications were made together with the surgical debridement (on average 1 to 2 times per week). • Administration of 36 extra perilesional compositions of 1.8 cc of each DECA in two applications of 0.9 cc per set, skirting the following open injuries without possibility of suture: the left inguinal region, the lateral side of the left thigh, the anterior left thigh and medial aspect of the left thigh, instep region and left lateral malleolus of the right leg. • Application of recombinant human interleukin-2 at low doses, at a receptor saturation level with a concentration of 1 to 2 million units per m^2 of the patient's body surface located in the region of the extra DECA applications. […]

On to `C[C@H]1[C@H](NC(=O)/C(=N\OC(C)(C)C(=O)O)c2csc(N)n2)C(=O)N1S(=O)(=O)O` [Aztreonam], for which the “Pre-immunotherapy cultures (29/01/2011): sensitivity of the isolate” value in data set [1] (Central catheter) and in data set [1] (Injury in the left thigh) was “baumannii only sensitive” in each case.
For Polymyxin B, the toxicity entry in data set [2] is given as “acute renal failure with oliguria”. The “Pre-immunotherapy cultures (29/01/2011): sensitivity of the isolate” value in data set [1] (Central catheter), in data set [1] (Injury in the left thigh) and in data set [1] (Peripheric blood) was “baumannii only sensitive” each time. The “sensitivity of the isolate” value in data set [1] (isolates of left thigh wound, peripheral blood and central catheter, result of 1 Feb. 2011) is recorded as “sensitive”.
